# Source: ChEMBL document CHEMBL1138365, “Application of 3D-QSAR for identification of descriptors defining bioactivity of antimicrobial peptides” (2007)
# Starred links: 1 amine or outer side, 2 acyl side, 3 side chain; linkers in the order of their positions; H or OH if unused. Non-standard residues stand in square brackets, D forms with d. Residues, ends and D or L forms follow the SMILES beside them. ξ: configuration not given here. *: point of attachment. Pro(3ξ,4ξ-(CH2)4) = O=C(O)[C@H]1NCC2CCCCC21; Oic = O=C(O)[C@@H]1C[C@@H]2CCCC[C@@H]2N1; X1 = O=C([C@H]1C2CCCCC2CN1[*:1])[*:2]; Tic = O=C(O)[C@@H]1Cc2ccccc2CN1; dTic = O=C(O)[C@H]1Cc2ccccc2CN1; ξTic = O=C(O)C1Cc2ccccc2CN1; dOrn = NCCC[C@@H](N)C(=O)O; Orn = NCCC[C@H](N)C(=O)O; NH(CH2)3NH2 = NCCCN*; Ahx = NCCCCCC(=O)O; GABA = NCCCC(=O)O
# Legend:
# Staphylococcus aureus = test: Antibacterial activity against Staphylococcus aureus; type: functional
# [1] = test system: Mycolicibacterium fortuitum; test: Antibacterial activity against Mycobacterium ranae; type: functional
Compound,MIC (Staphylococcus aureus) [µM],MIC [1] [µM]
"CC(=O)NCCCC(=O)N[C@@H](Cc1ccccc1)C(=O)N1Cc2ccccc2C[C@H]1C(=O)N1CC2CCCCC2[C@H]1C(=O)NCCCC(=O)N[C@@H](CCCCN)C(=O)N1Cc2ccccc2C[C@H]1C(=O)N1CC2CCCCC2[C@H]1C(=O)NCCCC(=O)N[C@@H](Cc1ccccc1)C(=O)N1Cc2ccccc2C[C@H]1C(=O)N1CC2CCCCC2[C@H]1C(=O)NCCCC(=O)N[C@@H](CCCCN)C(=O)N1Cc2ccccc2C[C@H]1C(=O)N[C@@H](CCCCN)C(=O)N[C@@H](CCCCN)C(=O)N[C@@H](CCCCN)C(=O)N[C@@H](CCCCN)C(=O)N[C@@H](CCCCN)C(N)=O (stereo partly specified) (Ac-[GABA]F[Tic][Pro(3ξ,4ξ-(CH2)4)][GABA]K[Tic][Pro(3ξ,4ξ-(CH2)4)][GABA]F[Tic][Pro(3ξ,4ξ-(CH2)4)][GABA]K[Tic]KKKKK-NH2)",30,3
"CC(=O)NCCCC(=O)N[C@@H](Cc1ccccc1)C(=O)N1Cc2ccccc2C[C@H]1C(=O)N1CC2CCCCC2[C@H]1C(=O)NCCCC(=O)N[C@@H](CCCCN)C(=O)N1Cc2ccccc2C[C@H]1C(=O)N1CC2CCCCC2[C@H]1C(=O)NCCCC(=O)N[C@@H](Cc1ccccc1)C(=O)N1Cc2ccccc2C[C@H]1C(=O)N1CC2CCCCC2[C@H]1C(=O)NCCCC(=O)N[C@@H](CCCCN)C(=O)N1Cc2ccccc2C[C@H]1C(=O)N[C@@H](CCCCN)C(=O)N[C@@H](CCCCN)C(=O)N[C@@H](CCCCN)C(=O)N[C@@H](CCCCN)C(N)=O (stereo partly specified) (Ac-[GABA]F[Tic][Pro(3ξ,4ξ-(CH2)4)][GABA]K[Tic][Pro(3ξ,4ξ-(CH2)4)][GABA]F[Tic][Pro(3ξ,4ξ-(CH2)4)][GABA]K[Tic]KKKK-NH2)",100,10
"CC(C)C[C@H](NC(=O)[C@@H](N)CCCCN)C(=O)N1Cc2ccccc2C[C@H]1C(=O)N1CC2CCCCC2[C@H]1C(=O)NCC(=O)N[C@@H](CCCCN)C(=O)N1Cc2ccccc2C[C@H]1C(=O)N1CC2CCCCC2[C@H]1C(=O)NCC(=O)N[C@@H](Cc1ccccc1)C(=O)N1Cc2ccccc2C[C@H]1C(=O)N1CC2CCCCC2[C@H]1C(=O)NCC(=O)N[C@@H](CCCCN)C(=O)N1Cc2ccccc2C[C@H]1C(=O)N[C@@H](CCCCN)C(=O)N[C@@H](CCCCN)C(=O)N[C@@H](CCCCN)C(=O)N[C@@H](CCCCN)C(N)=O (stereo partly specified) (H-KL[Tic][Pro(3ξ,4ξ-(CH2)4)]GK[Tic][Pro(3ξ,4ξ-(CH2)4)]GF[Tic][Pro(3ξ,4ξ-(CH2)4)]GK[Tic]KKKK-NH2)",30,3
"CC(=O)NCC(=O)N1Cc2ccccc2C[C@H]1C(=O)N1CC2CCCCC2[C@H]1C(=O)N[C@@H](CCCCN)C(=O)N1Cc2ccccc2C[C@H]1C(=O)N1CC2CCCCC2[C@H]1C(=O)NCC(=O)N1Cc2ccccc2CC1C(=O)N1CC2CCCCC2[C@H]1C(=O)N[C@@H](CCCCN)C(=O)N1Cc2ccccc2C[C@H]1C(=O)N[C@@H](CCCCN)C(=O)N[C@@H](CCCCN)C(=O)N[C@@H](CCCCN)C(=O)N[C@@H](CCCCN)C(N)=O (stereo partly specified) (Ac-G[Tic][Pro(3ξ,4ξ-(CH2)4)]K[Tic][Pro(3ξ,4ξ-(CH2)4)]G[ξTic][Pro(3ξ,4ξ-(CH2)4)]K[Tic]KKKK-NH2)",10,3
"CC(=O)N[C@@H](Cc1ccccc1)C(=O)N1Cc2ccccc2C[C@H]1C(=O)N1CC2CCCCC2[C@H]1C(=O)N[C@@H](CCCCN)C(=O)N1Cc2ccccc2C[C@H]1C(=O)N1CC2CCCCC2[C@H]1C(=O)N[C@@H](Cc1ccccc1)C(=O)N1Cc2ccccc2C[C@H]1C(=O)N1CC2CCCCC2[C@H]1C(=O)N[C@@H](CCCCN)C(=O)N1Cc2ccccc2C[C@H]1C(=O)N[C@@H](CCCCN)C(=O)N[C@@H](CCCCN)C(=O)N[C@@H](CCCCN)C(=O)N[C@@H](CCCCN)C(N)=O (stereo partly specified) (Ac-F[Tic][Pro(3ξ,4ξ-(CH2)4)]K[Tic][Pro(3ξ,4ξ-(CH2)4)]F[Tic][Pro(3ξ,4ξ-(CH2)4)]K[Tic]KKKK-NH2)",3,30
"CC(=O)NCC(=O)N[C@@H](Cc1ccccc1)C(=O)N1Cc2ccccc2C[C@H]1C(=O)N1CC2CCCCC2[C@@H]1C(=O)NCC(=O)N[C@H](CCCN)C(=O)N1Cc2ccccc2C[C@@H]1C(=O)N1CC2CCCCC2[C@H]1C(=O)NCC(=O)N[C@H](Cc1ccccc1)C(=O)N1Cc2ccccc2C[C@@H]1C(=O)N1CC2CCCCC2[C@@H]1C(=O)NCC(=O)N[C@H](CCCN)C(=O)N1Cc2ccccc2C[C@@H]1C(=O)N[C@H](CCCN)C(=O)N[C@H](CCCN)C(=O)N[C@H](CCCN)C(=O)N[C@H](CCCN)C(N)=O (stereo partly specified) (Ac-GF[Tic][X1]G[dOrn][dTic][Pro(3ξ,4ξ-(CH2)4)]G[dF][dTic][X1]G[dOrn][dTic][dOrn][dOrn][dOrn][dOrn]-NH2)",3,10
"CC(=O)NCC(=O)N[C@@H](Cc1ccccc1)C(=O)N1Cc2ccccc2C[C@H]1C(=O)N1CC2CCCCC2[C@H]1C(=O)NCC(=O)N[C@@H](CCCCN)C(=O)N1Cc2ccccc2C[C@H]1C(=O)N1CC2CCCCC2[C@H]1C(=O)NCC(=O)N[C@@H](Cc1ccccc1)C(=O)N1Cc2ccccc2C[C@H]1C(=O)N1CC2CCCCC2[C@H]1C(=O)NCC(=O)N[C@@H](CCCCN)C(=O)N1Cc2ccccc2C[C@H]1C(=O)N[C@@H](CCCCN)C(=O)N[C@@H](CCCCN)C(=O)N[C@@H](CCCCN)C(=O)N[C@@H](CCCCN)C(=O)N[C@@H](CCCCN)C(N)=O (stereo partly specified) (Ac-GF[Tic][Pro(3ξ,4ξ-(CH2)4)]GK[Tic][Pro(3ξ,4ξ-(CH2)4)]GF[Tic][Pro(3ξ,4ξ-(CH2)4)]GK[Tic]KKKKK-NH2)",3,3
"CC(C)C[C@H](NC(=O)[C@@H](N)CCCCN)C(=O)N1Cc2ccccc2C[C@H]1C(=O)N1CC2CCCCC2[C@H]1C(=O)N[C@@H](CCCCN)C(=O)N1Cc2ccccc2C[C@H]1C(=O)N1CC2CCCCC2[C@H]1C(=O)N[C@@H](Cc1ccccc1)C(=O)N1Cc2ccccc2C[C@H]1C(=O)N1CC2CCCCC2[C@H]1C(=O)N[C@@H](CCCCN)C(=O)N1Cc2ccccc2C[C@H]1C(=O)N1CC2CCCCC2[C@H]1C(=O)N[C@@H](Cc1ccccc1)C(=O)N1Cc2ccccc2C[C@H]1C(=O)N1CC2CCCCC2[C@H]1C(=O)N[C@@H](CCCCN)C(=O)N1Cc2ccccc2C[C@H]1C(=O)N1CC2CCCCC2[C@H]1C(=O)N[C@@H](CCCCN)C(=O)N[C@@H](CCCNC(=N)N)C(N)=O (stereo partly specified) (H-KL[Tic][Pro(3ξ,4ξ-(CH2)4)]K[Tic][Pro(3ξ,4ξ-(CH2)4)]F[Tic][Pro(3ξ,4ξ-(CH2)4)]K[Tic][Pro(3ξ,4ξ-(CH2)4)]F[Tic][Pro(3ξ,4ξ-(CH2)4)]K[Tic][Pro(3ξ,4ξ-(CH2)4)]KR-NH2)",10,30
"NCCCC[C@H](NC(=O)[C@H](CCCCN)NC(=O)[C@H](CCCCN)NC(=O)[C@H](CCCCN)NC(=O)[C@@H]1Cc2ccccc2CN1C(=O)[C@H](CCCCN)NC(=O)CNC(=O)[C@@H]1C2CCCCC2CN1C(=O)[C@@H]1Cc2ccccc2CN1C(=O)[C@H](Cc1ccccc1)NC(=O)CNC(=O)[C@@H]1C2CCCCC2CN1C(=O)[C@@H]1Cc2ccccc2CN1C(=O)[C@H](CCCCN)NC(=O)CNC(=O)[C@@H]1C2CCCCC2CN1C(=O)[C@@H]1Cc2ccccc2CN1C(=O)[C@H](Cc1ccccc1)NC(=O)CN)C(N)=O (stereo partly specified) (H-GF[Tic][Pro(3ξ,4ξ-(CH2)4)]GK[Tic][Pro(3ξ,4ξ-(CH2)4)]GF[Tic][Pro(3ξ,4ξ-(CH2)4)]GK[Tic]KKKK-NH2)",10,10
"CC(=O)NCC(=O)N[C@@H](Cc1ccccc1)C(=O)N1Cc2ccccc2C[C@H]1C(=O)N1CC2CCCCC2[C@H]1C(=O)NCC(=O)N[C@@H](CCCCN)C(=O)N1Cc2ccccc2C[C@H]1C(=O)N1CC2CCCCC2[C@H]1C(=O)NCC(=O)N[C@@H](Cc1ccccc1)C(=O)N1Cc2ccccc2C[C@H]1C(=O)N1CC2CCCCC2[C@H]1C(=O)NCC(=O)N[C@@H](CCCCN)C(=O)N1Cc2ccccc2C[C@H]1C(=O)N[C@@H](CCCN)C(=O)N[C@@H](CCCN)C(=O)N[C@@H](CCCN)C(=O)N[C@@H](CCCN)C(N)=O (stereo partly specified) (Ac-GF[Tic][Pro(3ξ,4ξ-(CH2)4)]GK[Tic][Pro(3ξ,4ξ-(CH2)4)]GF[Tic][Pro(3ξ,4ξ-(CH2)4)]GK[Tic][Orn][Orn][Orn][Orn]-NH2)",10,10
"CC(=O)NCCCCCC(=O)N[C@@H](Cc1ccccc1)C(=O)N1Cc2ccccc2C[C@H]1C(=O)N1CC2CCCCC2[C@H]1C(=O)NCCCCCC(=O)N[C@@H](CCCCN)C(=O)N1Cc2ccccc2C[C@H]1C(=O)N1CC2CCCCC2[C@H]1C(=O)NCCCCCC(=O)N[C@@H](Cc1ccccc1)C(=O)N1Cc2ccccc2C[C@H]1C(=O)N1CC2CCCCC2[C@H]1C(=O)NCCCCCC(=O)N[C@@H](CCCCN)C(=O)N1Cc2ccccc2C[C@H]1C(=O)N[C@@H](CCCCN)C(=O)N[C@@H](CCCCN)C(=O)N[C@@H](CCCCN)C(=O)N[C@@H](CCCCN)C(N)=O (stereo partly specified) (Ac-[Ahx]F[Tic][Pro(3ξ,4ξ-(CH2)4)][Ahx]K[Tic][Pro(3ξ,4ξ-(CH2)4)][Ahx]F[Tic][Pro(3ξ,4ξ-(CH2)4)][Ahx]K[Tic]KKKK-NH2)",10,3
CC(=O)NCC(=O)N[C@@H](Cc1ccccc1)C(=O)N1Cc2ccccc2C[C@H]1C(=O)N1[C@H](C(=O)NCC(=O)N[C@@H](CCCCN)C(=O)N2Cc3ccccc3C[C@H]2C(=O)N2[C@H](C(=O)NCC(=O)N[C@@H](Cc3ccccc3)C(=O)N3Cc4ccccc4C[C@H]3C(=O)N3[C@H](C(=O)NCC(=O)N[C@@H](CCCCN)C(=O)N4Cc5ccccc5C[C@H]4C(=O)N[C@@H](CCCCN)C(=O)N[C@@H](CCCCN)C(=O)N[C@@H](CCCCN)C(=O)N[C@@H](CCCCN)C(=O)NCCCN)C[C@@H]4CCCC[C@@H]43)C[C@@H]3CCCC[C@@H]32)C[C@@H]2CCCC[C@@H]21 (Ac-GF[Tic][Oic]GK[Tic][Oic]GF[Tic][Oic]GK[Tic]KKKK-{NH(CH2)3NH2}),10,10
"CC(=O)NCC(=O)N[C@@H](Cc1ccccc1)C(=O)N1Cc2ccccc2C[C@H]1C(=O)N1CC2CCCCC2[C@H]1C(=O)NCC(=O)N[C@@H](CCCCN)C(=O)N1Cc2ccccc2C[C@H]1C(=O)N1CC2CCCCC2[C@H]1C(=O)NCC(=O)N[C@@H](Cc1ccccc1)C(=O)N1Cc2ccccc2C[C@H]1C(=O)N1CC2CCCCC2[C@H]1C(=O)NCC(=O)N[C@@H](CCCCN)C(=O)N1Cc2ccccc2C[C@H]1C(=O)N[C@@H](CCCCN)C(=O)N[C@@H](CCCCN)C(=O)N[C@@H](CCCCN)C(=O)N[C@@H](CCCCN)C(N)=O (stereo partly specified) (Ac-GF[Tic][Pro(3ξ,4ξ-(CH2)4)]GK[Tic][Pro(3ξ,4ξ-(CH2)4)]GF[Tic][Pro(3ξ,4ξ-(CH2)4)]GK[Tic]KKKK-NH2)",3,10
